Test: Modified Recombinant Enzyme Assay: Glutaminase reaction buffer was prepared [50 mM Tris-HCl pH 8.8, 150 mM K2HPO4, […] EDTA, 0.1 mg/ml BSA (Calbiochem no. 2960), 1 mM DTT, 2 mM NADP+(Sigma Aldrich no. N5755), and 0.01% TX-100] and used to make 3×-enzyme-containing solution, 3×-substrate-containing solution, and 3×-inhibitor-containing solution (see below) Inhibitor-containing solution was made

Row | SMILES | IC50 [µM]
1 | O=C(Cc1ccc(O)c(OC(F)(F)F)c1)Nc1ccc(CCCCc2nnc(NC(=O)Cc3ccccn3)s2)nn1 | 0.042
2 | O=C(Cc1cc(OC(F)(F)F)ccc1O)Nc1ccc(CCCCc2nnc(NC(=O)Cc3ccccn3)s2)nn1 | 0.026
3 | COc1ccc(CC(=O)Nc2ccc(CCCCc3nnc(NC(=O)Cc4ccccn4)s3)nn2)cc1OC(F)(F)F | 0.024
4 | COc1ccc(OC(F)(F)F)cc1CC(=O)Nc1ccc(CCCCc2nnc(NC(=O)Cc3ccccn3)s2)nn1 | 0.034
5 | O=C(Cc1ccccn1)Nc1nnc(CCCCc2ccc(NC(=O)C(O)c3ccccc3)nn2)s1 (stereo not drawn) | 0.19
6 | COc1cc(CC(=O)Nc2ccc(CCCCc3nnc(NC(=O)Cc4ccccn4)s3)nn2)cc(OC(F)(F)F)c1 | 0.016

Other lines, results leading:

Row | IC50 [µM] | SMILES
7 | 0.012 | Cc1cccc(CC(=O)Nc2nnc(CCCCc3ccc(NC(=O)Cc4cccc(OC(F)(F)F)c4)nn3)s2)n1
8 | 0.02 | O=C(Cc1cc(OC(F)(F)F)ccc1F)Nc1ccc(CCCCc2nnc(NC(=O)Cc3ccccn3)s2)nn1
9 | 0.033 | O=C(Cc1ccc(F)c(OC(F)(F)F)c1)Nc1ccc(CCCCc2nnc(NC(=O)Cc3ccccn3)s2)nn1
10 | 0.14 | CC(C)(C)OC(=O)Nc1cccc(CC(=O)Nc2nnc(CCCCc3ccc(NC(=O)Cc4cccc(OC(F)(F)F)c4)nn3)s2)n1
11 | 0.013 | O=C(Cc1cc(O)cc(OC(F)(F)F)c1)Nc1ccc(CCCCc2nnc(NC(=O)Cc3ccccn3)s2)nn1
12 | 0.05 | Nc1cccc(CC(=O)Nc2nnc(CCCCc3ccc(NC(=O)Cc4cccc(OC(F)(F)F)c4)nn3)s2)n1
13 | 0.016 | O=C(Cc1ccc(Cl)c(OC(F)(F)F)c1)Nc1ccc(CCCCc2nnc(NC(=O)Cc3ccccn3)s2)nn1

From ChEMBL document CHEMBL5727994, “Heterocyclic glutaminase inhibitors” (2020)
